Drawing on patent publication US5019573A, “Substituted dibenzofurans and methods of using same” (Euroceltique, S.A., priority 1989, dated 1991), this text covers inhibition and IC50 for 7 compounds.

For assay [1], the system named is LTB4-induced degranulation of purified human neutrophils. Put plainly: LTB4-induced neutrophil degranulation (myeloperoxidase release). Type of assay: cell-based. Conditions: LTB4-induced MPO release; for inhibition at 30 µM: read-out: LTB-Induced Neutrophil Degranulation % Inhibition at 30 uM; for IC50: concentration-response, read-out: LTB-Induced Neutrophil Degranulation I50. The method, then:
(§1) Each compound was tested in two in vitro models of LTB4 induced cell function. The cellular responses measured are presumed to be mediated via specific interactions of LTB4 with cellular receptors.
(§2) The cellular responses studied include 1) LTB4 -induced degranulation (release of myeloperoxidase) from purified human neutrophils and 2) LTB4 -induced adhesion of human neutrophils to latex beads. Each putative antagonist was tested at 30 uM for its effect on each response. Selected compounds were tested in a concentration-response fashion.
(1) Neutrophil Degranulation Assay
Neutrophils are isolated from human venous blood via a twostep sedimentation procedure, and contaminating erythrocytes are selectively lysed. The neutrophils were preincubated in 0.25% Hanks buffer containing bovine serum albumin (BSA) with 5 ug Cytochalasin B/ml cells for 5 minutes at 37° C. Neutrophils (4×10^6) are added to stimuli (LTB4 or buffer control) in the presence and absence of antagonist in Krebs-Ringer buffer to a final volume of 1.0 ml, and incubated at 37° C. for appropriate periods of time. At the end of the reaction period the neutrophils are pelleted by centrifugation at 3000 rpm for 5 minutes at 4° C.
Aliquots (0.2 ml) of the supernatants are added to polystyrene tubes to which are added the following: 0.6 ml )>25% Hanks BSA, 0.5 ml MPO buffer (0.2 M NaPO4, pH 6.2) and to start the color reaction 0.2 ml of a 1:1 v/v 0.05% H2 O2 :1.25 mg/ml dimethoxybenzidine (DMB). The reaction is allowed to run at room temperature for 15 minutes and is stopped by the addition of 0.05 ml 2% sodium azide. The developed color is quantitated in a spectrophotometer at 460 nm. The amount of myeloperoxidase (MPO) released by LTB4 stimulation can thus be determined. In order to determine the total amount of MPO in the cells an unstimulated control tube of neutrophils is lysed using 0.01 ml 10% Triton TX and the total MPO is determined via the color reaction and spectrophotometer reading. The activity of a given concentration of LTB4 is expressed as the percentage of the total MPO released. The activity of antagonists at a given concentration is expressed as a percentage of inhibiton of LTB4 -induced MPO release at a single concentration cf LTB4.

Assay [2] deals with LTB4-induced adhesion of human neutrophils to latex beads. Put plainly: LTB4-induced neutrophil latex bead adhesion. Type of assay: cell-based. Conditions: albumin-coated latex beads, read-out: LTB-Induced Neutrophil Bead Adhesion % Inhibition at 30 uM. The method, then:
as §1, §2
(2) Neutrophil Latex Bead Adhesion
Latex bead suspension (0.6 ml; 10% aqueous suspension; particle diameter=1u) is pipeted into a 1.5 ml eppendorf centrifuge tube. The beads are pelleted by centrifugation, the supernatant is discarded and the beads are washed 2 times with 1 ml 0.9% saline. To the pelleted beads is added 0.5 ml saline and 0.5 ml 20 mg/ml human serum albumin (HSA) in Krebs-Ringer buffer. Allow bead-albumin mixture to sit at room temperature for 10 minutes, centrifuge for 1 minute and remove the supernatant, and wash albumin-coated beads 3 times with saline. Resuspend the beads in 1 ml of Krebs-Ringer.
Human neutrophils are prepared as described for the neutrophil degranulation assay and 10^7 cells are added to 0.3 ml of Krebs-Ringerin the presence and absence of LTB4 and putative antagonist and are incubated at 37° for an appropriate period of time.
The albumin-coated beads are then added in 0.05 ml to give a final bead concentration of 1% v/v, resulting in a bead to neutrophil ratio of 100:1. The tubes containing cells and beads are then placed in an agitating water bath at 37° C. and 120 oscillation per minute for 10 minutes. The reaction is stopped by adding an equal volume of 2.5% gluteraldehyde in saline. The reaction tubes are allowed to stand at room temperature for 30 minutes. The cells are then washed 3 times (with centrifugation at 1000 rpm for 5 minutes) with saline to remove the unadhered latex beads and resuspended in 0.3 ml saline.
Wet mounts are prepared and adherence is examined by light microscopy at 400x. Adherence is scored by counting five randomly placed fields of at least 50 neutrophils per field. […] Activity of the antagonists is expressed as the percent inhibition of LTB4 induced adherence.

For orientation: inhibition means the change of the read-out against control, counted positive when it falls. Turning to `O=C(O)CC(O)c1ccc2oc3ccc(C(O)Cc4ccccc4)cc3c2c1` (centres unmarked) [Compound 11, 3-[2-[8-(1-Hydroxy)-2-phenylethyl]dibenzofuranyl]-3-hydroxypropionic Acid], the inhibition at 30 µM in assay [1] was found to be 35%; in assay [2], 7%.

As for `CN(C)C(=O)CC(O)c1ccc2oc3ccc(C(O)Cc4ccccc4)cc3c2c1` (centres unmarked) [Compound 12, N,N-Dimethyl-3-[2-[8-(1-hydroxy)-2-phenylethyl]dibenzofuranyl]-3-hydroxypropanamide], in assay [1], the inhibition at 30 µM came out at 100% and the IC50 stood at 13 µM. Besides, the inhibition at 30 µM in assay [2] was 14%.

For `CN(C)C(=O)CCC(O)c1ccc2oc3ccc(C(O)Cc4ccccc4)cc3c2c1` (centres unmarked) [Compound 22, N,N-Dimethyl-4-[2-[8-(1-hydroxy)-2-phenylethyl]dibenzofuran-2-yl]-4-hydroxybutanamide], the inhibition at 30 µM came to 100% in assay [1] and 1% in assay [2].

Take `O=C(CCC(O)c1ccc2oc3ccc(C(O)Cc4ccccc4)cc3c2c1)N1CCCC1` (centres unmarked) [Compound 23, N-[4-[2-[8-(1-Hydroxy)-2-phenylethyl]dibenzofuranyl]-4-hydroxybutanoyl]pyrrolidine]: the inhibition at 30 µM in assay [1] came to 62%; in assay [2], 10%.

Regarding `O=C(O)CCCC(O)c1ccc2oc3ccc(C(O)Cc4ccccc4)cc3c2c1` (centres unmarked) [Compound 40, Sodium 5-[2-[8-(1-Hydroxy)-2-phenylethyl]dibenzofuranyl]-5-hydroxypentanoate], the inhibition at 30 µM worked out at 38% in assay [1] and 5% in assay [2].

On to `CN(C)C(=O)CCCC(O)c1ccc2oc3ccc(C(O)Cc4ccccc4)cc3c2c1` (centres unmarked) [Compound 41, N,N-Dimethyl-5-[2-[8-(1-hydroxy)-2-phenylethyl]dibenzofuranyl}-5-hydroxypentanamide], for which the values for the inhibition at 30 µM in assay [1] and in assay [2] were 57% and 2%, respectively. For the same compound, in assay [1], the IC50 is 9 µM.

On to `O=C(CCCC(O)c1ccc2oc3ccc(C(O)Cc4ccccc4)cc3c2c1)N1CCCC1` (centres unmarked) [Compound 42, N-[5-[2-[8-(1-Hydroxy)-2-phenylethyl]dibenzofuranyl]-5 hydroxypentanoyl]pyrrolidine], for which, in assay [1], the inhibition at 30 µM amounted to 100% and the IC50 came to 19 µM. Further, the inhibition at 30 µM in assay [2] is 12%.
